Assay results: patent publication US6599747B1, “Soil test” (University of Lancaster, priority 1998, dated 2003)

Experiment: Extraction of soil-associated 14C-9-phenanthrene with aqueous HPCD solution
Assay type: physicochemical
Settings: for Concentration Extracted into HPCD Solution: 20 h
Protocol: A sample was “spiked” with 10 mg kg^−1 14C-9phenanthrene. Samples of the soil (1.25 g) were then extracted for 20 hours (sufficient time for extraction of the rapidly i.e. non-kinetically restrained fraction of compounds to be exchanged—see Example 2) with increasing concentration solutions (25 ml) of HPCD in water. The amount of activity exchanged into the HPCD solution was measured as was the total activity present. The results are shown in Table 1 in which the activity units are dpm g^−1 soil (where dpm stands for disintegrations per minute).
The above extraction was repeated but using an HPCD solution having a concentration of 50 mM. However the extraction was terminated after 3, 6, 12, 18, 24 and 40 hours. The results are shown in Table 2 in which the activity units are dpm […] soil (where dpm stands for disintegration per minute).
Soil was “spiked” to concentrations of 25 and 50 mg kg^−1. The above extraction was repeated but using a HPCD solution having a concentration of 50 mM. Soil samples were aged for 1, 42 and 84 d prior to extraction. An extraction time of 20 h was used as before (Example 1 and 2 ). The biodegradability of the soil associated ^14C-9-phenanthrene was assessed using respirometry. Respirometers consisted of Erlyn,eyer flasks (250 mL), to which soil (10 g) and water (30 mL) were added. The flasks were innoculated (10^7-10^8 g^−1 soil) with a catabolocally active microbial culture. The sealed flasks were shaken and the carbon dioxide evolved from the biodegration of the phenanthrene trapped in potassium hydroxide (1 M, 1 mL.) Mineralisation was measured until it platcauted (240 h).

[1] = HPCD 0 mM, 20 h extraction, soil spiked 10 mg kg^−1
[2] = HPCD 5 mM, 20 h extraction, soil spiked 10 mg kg^−1
[3] = HPCD 10 mM, 20 h extraction, soil spiked 10 mg kg^−1
[4] = HPCD 20 mM, 20 h extraction, soil spiked 10 mg kg^−1
[5] = HPCD 40 mM, 20 h extraction, soil spiked 10 mg kg^−1
[6] = HPCD 50 mM, 20 h extraction, soil spiked 10 mg kg^−1
[7] = HPCD 60 mM, 20 h extraction, soil spiked 10 mg kg^−1

Which “HPCD solution concentration giving maximum extraction” value (20 h extraction, soil spiked 10 mg kg^−1) does the source give for `c1ccc2c(c1)ccc1ccccc12` [phenanthrene] here?
Its value is 40 mM.

And the “% Exchangeable with HPCD solution” value [1]?
The value was 2.79%.

What about the “Activity Exchanged into HPCD Solution” value [1] of the same compound?
Its value is 86.96 dpm g^−1 soil.

What about the “% Exchangeable with HPCD solution” value [2] of the same compound?
The value was 38.06%.

And the “Activity Exchanged into HPCD Solution” value [2]?
The value was 1186.25 dpm g^−1 soil.

And the “% Exchangeable with HPCD solution” value [3]?
The value was 45.88%.

And the “Activity Exchanged into HPCD Solution” value [3]?
Its value is 1429.98 dpm g^−1 soil.

What about the “% Exchangeable with HPCD solution” value [4] of the same compound?
Its value is 57.51%.

What about the “Activity Exchanged into HPCD Solution” value [4] of the same compound?
The value was 1792.47 dpm g^−1 soil.

And the “% Exchangeable with HPCD solution” value [5]?
Its value is 71.63%.

And the “Activity Exchanged into HPCD Solution” value [5]?
Its value is 2232.56 dpm g^−1 soil.

And the “extraction time after which the rapidly (non-kinetically restrained) fraction was extracted” value (HPCD 50 mM)?
Its value is 6 h.

What about the “% Exchangeable with HPCD solution” value [6] of the same compound?
The value was 64.33%.

What about the “Activity Exchanged into HPCD Solution” value [6] of the same compound?
The value was 2005.03 dpm g^−1 soil.

What about the “% Exchangeable with HPCD solution” value (HPCD 50 mM, extraction time 0 h) of the same compound?
The value was 0.0%.

What about the “% Exchangeable with HPCD solution” value (HPCD 50 mM, extraction time 3 h) of the same compound?
Its value is 64.2%.

What about the “% Exchangeable with HPCD solution” value (HPCD 50 mM, extraction time 6 h) of the same compound?
Its value is 73.4%.

What about the “% Exchangeable with HPCD solution” value (HPCD 50 mM, extraction time 12 h) of the same compound?
The value was 72.8%.

And the “% Exchangeable with HPCD solution” value (HPCD 50 mM, extraction time 18 h)?
Its value is 74.5%.

And the “% Exchangeable with HPCD solution” value (HPCD 50 mM, extraction time 24 h)?
Its value is 76.8%.

What about the “% Exchangeable with HPCD solution” value (HPCD 50 mM, extraction time 40 h) of the same compound?
The value was 75.6%.

And the “% Exchangeable with HPCD solution” value [7]?
Its value is 69.74%.

What about the “Activity Exchanged into HPCD Solution” value [7] of the same compound?
The value was 2173.65 dpm g^−1 soil.

And the “Concentration Extracted into HPCD Solution” value (soil spiked 25 mg/kg^−1, aged 1 d, HPCD 50 mM)?
The value was 19.5 mg/kg^−1.

And the “Concentration Extracted into HPCD Solution” value (soil spiked 25 mg/kg^−1, aged 42 d, HPCD 50 mM)?
Its value is 17.6 mg/kg^−1.

And the “Concentration Extracted into HPCD Solution” value (soil spiked 25 mg/kg^−1, aged 84 d, HPCD 50 mM)?
Its value is 15.5 mg/kg^−1.

And the “Concentration Extracted into HPCD Solution” value (soil spiked 50 mg/kg^−1, aged 1 d, HPCD 50 mM)?
Its value is 29.9 mg/kg^−1.

What about the “Concentration Extracted into HPCD Solution” value (soil spiked 50 mg/kg^−1, aged 42 d, HPCD 50 mM) of the same compound?
The value was 15.4 mg/kg^−1.

And the “Concentration Extracted into HPCD Solution” value (soil spiked 50 mg/kg^−1, aged 84 d, HPCD 50 mM)?
The value was 1.0 mg/kg^−1.
